In patent US8927500B2, “Peptidomimetic macrocycles” (Aileron Therapeutics, Inc., priority 2012, dated 2015):
Where a SMILES comes first, the peptide text is derived from it. Bridges are numbered along the chain shown (N, C = ends). [ ]: non-standard residue; d: D form. R8 = C=CCCCCCC[C@@](C)(N)C(=O)O; Cha = N[C@@H](CC1CCCCC1)C(=O)O; Chg = N[C@H](C(=O)O)C1CCCCC1; hLeu = CC(C)CC[C@H](N)C(=O)O; S5 = C=CCCC[C@](C)(N)C(=O)O; Nle = CCCC[C@H](N)C(=O)O; Ac3c = NC1(C(=O)O)CC1; Aib = CC(C)(N)C(=O)O

Tests used:
[1] = test system: Caspase 3; experiment: Caspase 3 detection assay in SJSA1 cells; assay type: cell-based; details: 48 h, Caspase 3 activation over DMSO-treated cells; for caspase 0.3 uM: 0.3 uM peptide; for caspase 3 uM: 3 uM peptide; for caspase 10 uM: 10 uM peptide; for caspase 30 uM: 30 uM peptide
[2] = test system: SJSA-1 cells; experiment: Cell lysis by peptidomimetic macrocycles (LDH release); assay type: cell-based; details: 1 h at 37C
Description: On the day of the assay, media was exchanged with RPMI 1% FBS media, 90 uL of media per well.
10 mM stock solutions of the peptidomimetic macrocycles were prepared in 100% DMSO.
The negative control (non-lytic) sample was 0.5% DMSO alone and positive control (lytic) samples include 10 uM Melittin and 1% Triton X-100.
Cell plates were incubated for 1 hour at 37C. After the 1 hour incubation, the morphology of the cells is examined by microscope and then the plates were centrifuged at 1200 rpm for 5 minutes at room temperature. 40 uL of supernatant for each peptidomimetic macrocycle and control sample is transferred to clear assay plates.

[3] = target: MDM2 (Homo sapiens, UniProt Q00987); experiment: Competitive fluorescence polarization assay for MDM2; assay type: binding; details: competitive FP assay, MDM2; for IC50: read-out: IC50 (MDM2); for Ki: read-out: Ki (MDM2)
MDM2, sequence (Q00987 1-125): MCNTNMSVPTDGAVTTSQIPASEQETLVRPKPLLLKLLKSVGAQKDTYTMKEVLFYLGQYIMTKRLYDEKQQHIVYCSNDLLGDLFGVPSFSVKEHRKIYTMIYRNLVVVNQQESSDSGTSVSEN

[4] = target: T1, MDMX (Homo sapiens, UniProt O15151); experiment: Competitive fluorescence polarization assay for MDMX; assay type: binding; details: competitive FP assay; for IC50: read-out: IC50 (MDMX); for Ki: read-out: Ki (MDMX)
T1 sequence (O15151 1-125): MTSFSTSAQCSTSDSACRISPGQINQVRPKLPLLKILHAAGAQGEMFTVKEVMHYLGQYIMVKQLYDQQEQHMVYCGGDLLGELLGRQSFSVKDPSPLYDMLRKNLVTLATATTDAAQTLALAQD

Structure (SMILES) | IC50 [3] | Ki [3] | IC50 [4] | Ki [4] | caspase 0.3 uM [1] | caspase 3 uM [1] | caspase 10 uM [1] | caspase 30 uM [1] | 6.25 uM % Lysed cells (1 h LDH) [2] | 25 uM % Lysed cells (1 h LDH) [2] | 50 uM % Lysed cells (1 h LDH) [2]
CC[C@H](C)[C@H](NC(=O)[C@H](C)NC(=O)[C@H](C)NC(=O)[C@]1(C)CCCC=CCCCCCC[C@@](C)(NC(=O)[C@H](Cc2ccccc2)NC(=O)[C@@H](NC(=O)[C@H](CC(C)C)NC(C)=O)[C@@H](C)O)C(=O)N[C@@H](C)C(=O)N[C@@H](Cc2ccc(O)cc2)C(=O)N[C@@H](Cc2c[nH]c3ccccc23)C(=O)N[C@@H](C)C(=O)N[C@@H](CCC(N)=O)C(=O)N[C@@H](CC(C)C)C(=O)N1)C(=O)N[C@H](CC(C)C)C(N)=O (single isomer, unassigned) [compound 81] | – | – | – | – | 1 | 1 | 6 | 21 | 1% | 0% | 0%
CC(=O)N[C@@H](CC(C)C)C(=O)N[C@H](C(=O)N[C@@H](Cc1ccccc1)C(=O)N[C@]1(C)CCCCCCC=CCCC[C@@](C)(C(=O)N[C@@H](CO)C(=O)N[C@@H](C)C(=O)N[C@@H](C)C(N)=O)NC(=O)[C@H](C2CCCC2)NC(=O)[C@H](CCC(N)=O)NC(=O)[C@H](C)NC(=O)[C@H](Cc2c[nH]c3ccccc23)NC(=O)[C@H](Cc2ccc(O)cc2)NC(=O)[C@H](CCC(=O)O)NC1=O)[C@@H](C)O (single isomer, unassigned) [compound 149] | – | – | – | – | 1 | 2 | 4 | 10 | 6% | 7% | 21%
CC(=O)N[C@@H](CC(C)C)C(=O)N[C@H](C(=O)N[C@@H](Cc1ccccc1)C(=O)N[C@]1(C)CCCCCCC=CCCC[C@@](C)(C(=O)N[C@@H](CO)C(=O)N[C@@H](C)C(=O)N[C@@H](C)C(N)=O)NC(=O)[C@H](CC2CCC2)NC(=O)[C@H](CCC(N)=O)NC(=O)[C@H](C)NC(=O)[C@H](Cc2c[nH]c3ccccc23)NC(=O)[C@H](Cc2ccc(O)cc2)NC(=O)[C@H](CCC(=O)O)NC1=O)[C@@H](C)O (single isomer, unassigned) [compound 153] | – | – | – | – | 2 | 10 | 15 | 20 | 4% | 2% | 3%
CC(=O)N[C@@H](CC(C)C)C(=O)N[C@H](C(=O)N[C@@H](Cc1ccccc1)C(=O)N[C@]1(C)CCCCCCC=CCCC[C@@](C)(C(=O)N[C@@H](C)C(=O)N[C@@H](C)C(=O)N[C@@H](Cc2ccccc2)C(=O)N[C@H](C)C(N)=O)NC(=O)[C@H](CC(C)C)NC(=O)[C@H](CCC(N)=O)NC(=O)[C@H](C)NC(=O)[C@H](Cc2c[nH]c3ccccc23)NC(=O)[C@H](Cc2ccc(O)cc2)NC(=O)[C@H](CCC(=O)O)NC1=O)[C@@H](C)O (single isomer, unassigned) [compound 219] | – | – | – | – | 1 | 5 | 17 | 34 | 0% | −1% | 2%
CC(=O)N[C@@H](CC(C)C)C(=O)N[C@H](C(=O)N[C@@H](Cc1ccccc1)C(=O)N[C@]1(C)CCCCCCC=CCCC[C@@](C)(C(=O)N[C@@H](CO)C(=O)N[C@@H](C)C(=O)N[C@H](C(N)=O)C2CCCCC2)NC(=O)[C@H](CC(C)C)NC(=O)[C@H](CCC(N)=O)NC(=O)[C@H](C)NC(=O)[C@H](Cc2c[nH]c3ccccc23)NC(=O)[C@H](Cc2ccc(O)cc2)NC(=O)[C@H](C)NC1=O)[C@@H](C)O [compound 9] (Ac-LTF[R8]AYWAQL[S5]SA[Chg]-NH2; staple 4-11) | 100 to 1000 nM | 10 to 100 nM | 100 to 1000 nM | 10 to 100 nM | – | – | – | – | −3% | 0% | 2%
CC(=O)N[C@@H](Cc1ccccc1)C(=O)N[C@]1(C)CCCCCCC=CCCC[C@@](C)(C(=O)N[C@@H](C)C(=O)N[C@@H](C)C(=O)N[C@@H](CC(C)C)C(N)=O)NC(=O)[C@H](CC(C)C)NC(=O)C2(CC2)NC(=O)[C@H](CCC(=O)O)NC(=O)[C@H](Cc2c[nH]c3ccccc23)NC(=O)[C@H](Cc2ccc(O)cc2)NC(=O)[C@H](C)NC1=O [compound 15] (Ac-F[R8]AYWE[Ac3c]L[S5]AAL-NH2; staple 2-9) | 10 to 100 nM | 10 to 100 nM | 100 to 1000 nM | 10 to 100 nM | – | – | – | – | 1% | 2% | 5%
CC(=O)N[C@@H](Cc1ccccc1)C(=O)N[C@]1(C)CCCCCCC=CCCC[C@@](C)(C(=O)N[C@@H](C)C(=O)N[C@@H](C)C(=O)N[C@@H](Cc2ccccc2)C(N)=O)NC(=O)[C@H](CC(C)C)NC(=O)C2(CC2)NC(=O)[C@H](CCC(=O)O)NC(=O)[C@H](Cc2c[nH]c3ccccc23)NC(=O)[C@H](Cc2ccc(O)cc2)NC(=O)[C@H](C)NC1=O [compound 18] (Ac-F[R8]AYWE[Ac3c]L[S5]AAF-NH2; staple 2-9) | 10 to 100 nM | < 10 nM | 10 to 100 nM | < 10 nM | – | – | – | – | 0% | 2% | 4%
CC[C@H](C)[C@H](NC(=O)[C@H](C)NC(=O)[C@H](C)NC(=O)[C@]1(C)CCCC=CCCCCCC[C@@](C)(NC(=O)[C@H](Cc2ccccc2)NC(C)=O)C(=O)N[C@@H](C)C(=O)N[C@@H](Cc2ccc(O)cc2)C(=O)N[C@@H](Cc2c[nH]c3ccccc23)C(=O)N[C@@H](CCC(=O)O)C(=O)NC2(CC2)C(=O)N[C@@H](CC(C)C)C(=O)N1)C(N)=O [compound 19] (Ac-F[R8]AYWE[Ac3c]L[S5]AAI-NH2; staple 2-9) | 100 to 1000 nM | 10 to 100 nM | 10 to 100 nM | 10 to 100 nM | – | – | – | – | 2% | 3% | 21%
CC(=O)N[C@@H](Cc1ccccc1)C(=O)N[C@]1(C)CCCCCCC=CCCC[C@@](C)(C(=O)N[C@@H](C)C(=O)N[C@@H](C)C(=O)NC(C)(C)C(N)=O)NC(=O)[C@H](CC(C)C)NC(=O)C2(CC2)NC(=O)[C@H](CCC(=O)O)NC(=O)[C@H](Cc2c[nH]c3ccccc23)NC(=O)[C@H](Cc2ccc(O)cc2)NC(=O)[C@H](C)NC1=O [compound 22] (Ac-F[R8]AYWE[Ac3c]L[S5]AA[Aib]-NH2; staple 2-9) | 10 to 100 nM | < 10 nM | 10 to 100 nM | 10 to 100 nM | – | – | – | – | 0% | 0% | 0%

More lines, main results first:

IC50 [3] | Ki [3] | IC50 [4] | Ki [4] | Structure (SMILES) | caspase 0.3 uM [1] | caspase 3 uM [1] | caspase 10 uM [1] | caspase 30 uM [1] | 6.25 uM % Lysed cells (1 h LDH) [2] | 25 uM % Lysed cells (1 h LDH) [2] | 50 uM % Lysed cells (1 h LDH) [2]
10 to 100 nM | < 10 nM | 100 to 1000 nM | 10 to 100 nM | CC(=O)N[C@@H](Cc1c[nH]cn1)C(=O)N[C@@H](CC(C)C)C(=O)N[C@H](C(=O)N[C@@H](Cc1ccccc1)C(=O)N[C@]1(C)CCCCCCC=CCCC[C@@](C)(C(=O)N[C@@H](C)C(=O)N[C@@H](C)C(=O)N[C@@H](CCC(C)C)C(=O)N[C@@H](C)C(N)=O)NC(=O)[C@H](CC(C)C)NC(=O)[C@H](CCC(N)=O)NC(=O)[C@H](Cc2c[nH]cn2)NC(=O)[C@H](Cc2c[nH]c3ccccc23)NC(=O)[C@H](Cc2c[nH]cn2)NC(=O)[C@H](Cc2c[nH]cn2)NC1=O)[C@@H](C)O [compound 32] (Ac-HLTF[R8]HHWHQL[S5]AA[hLeu]A-NH2; staple 5-12) | – | – | – | – | 0% | 2% | 0%
> 1000 nM | 100 to 1000 nM | 100 to 1000 nM | 100 to 1000 nM | CCCC[C@H](NC(=O)[C@H](C)NC(=O)[C@H](CCC(N)=O)NC(=O)[C@H](Cc1c[nH]cn1)NC(=O)[C@]1(C)CCCC=CCCCCCC[C@@](C)(NC(=O)[C@H](Cc2ccccc2)NC(C)=O)C(=O)N[C@@H](C)C(=O)N[C@@H](Cc2ccc(O)cc2)C(=O)N[C@@H](Cc2c[nH]c3ccccc23)C(=O)N[C@@H](CO)C(=O)N[C@@H](C)C(=O)N[C@@H](CC(C)C)C(=O)N1)C(N)=O [compound 39] (Ac-F[R8]AYWSAL[S5]HQA[Nle]-NH2; staple 2-9) | – | – | – | – | 0% | 0% | 3%
> 1000 nM | 100 to 1000 nM | > 1000 nM | 100 to 1000 nM | CC(=O)N[C@@H](Cc1ccccc1)C(=O)N[C@]1(C)CCCCCCC=CCCC[C@@](C)(C(=O)N[C@@H](Cc2c[nH]cn2)C(=O)N[C@@H](CCCNC(=N)N)C(=O)N[C@@H](Cc2ccccc2)C(=O)N[C@@H](CC2CCCCC2)C(N)=O)NC(=O)[C@H](CC(C)C)NC(=O)[C@H](CCC(N)=O)NC(=O)[C@H](Cc2c[nH]cn2)NC(=O)[C@H](Cc2c[nH]c3ccccc23)NC(=O)[C@H](Cc2c[nH]cn2)NC(=O)[C@H](Cc2c[nH]cn2)NC1=O [compound 55] (Ac-F[R8]HHWHQL[S5]HRF[Cha]-NH2; staple 2-9) | – | – | – | – | 1% | 9% | 13%
< 10 nM | < 10 nM | 100 to 1000 nM | 10 to 100 nM | CC(=O)N[C@@H](CC(C)C)C(=O)N[C@H](C(=O)N[C@@H](Cc1ccccc1)C(=O)N[C@]1(C)CCCCCCC=CCCC[C@@](C)(C(=O)N[C@@H](C)C(=O)N[C@@H](C)C(=O)N[C@@H](Cc2c[nH]c3ccccc23)C(=O)N[C@H](C)C(N)=O)NC(=O)[C@H](CC(C)C)NC(=O)[C@H](CCC(N)=O)NC(=O)[C@H](C)NC(=O)[C@H](Cc2c[nH]c3ccccc23)NC(=O)[C@H](Cc2ccc(O)cc2)NC(=O)[C@H](C)NC1=O)[C@@H](C)O [compound 211] (Ac-LTF[R8]AYWAQL[S5]AAW[dA]-NH2; staple 4-11) | – | – | – | – | 5% | 3% | 1%
